From patent US11524968B2, “Heterocyclic compound as a protein kinase inhibitor” (HK inno.N Corporation, priority 2017, dated 2022)

What follows are molecules tested against JAK1 (Homo sapiens (Human), UniProt P23458) (assay: Analysis of JAK1 activity inhibition ability (ADP-Glo Kinase Assay)). Settings: JAK1 enzyme, ADP-Glo luminescence, ATP 250 uM, IRS-itide substrate, 30° C. 40 minutes; read-out: IC50.
Type: biochemical
Method in brief: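 ADP-Glo luminescence read-out of ADP production, with IC50 taken as the concentration halving JAK1 activity relative to control. Enzyme was incubated 40 min at 30 °C with compound, IRS-itide (40 ng/mL) and ATP (250 uM), concentrations as prepared in pH 7.5 Tris-HCl/MgCl2/BSA/DTT buffer.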

Sequence of JAK1 (P23458 whole entry): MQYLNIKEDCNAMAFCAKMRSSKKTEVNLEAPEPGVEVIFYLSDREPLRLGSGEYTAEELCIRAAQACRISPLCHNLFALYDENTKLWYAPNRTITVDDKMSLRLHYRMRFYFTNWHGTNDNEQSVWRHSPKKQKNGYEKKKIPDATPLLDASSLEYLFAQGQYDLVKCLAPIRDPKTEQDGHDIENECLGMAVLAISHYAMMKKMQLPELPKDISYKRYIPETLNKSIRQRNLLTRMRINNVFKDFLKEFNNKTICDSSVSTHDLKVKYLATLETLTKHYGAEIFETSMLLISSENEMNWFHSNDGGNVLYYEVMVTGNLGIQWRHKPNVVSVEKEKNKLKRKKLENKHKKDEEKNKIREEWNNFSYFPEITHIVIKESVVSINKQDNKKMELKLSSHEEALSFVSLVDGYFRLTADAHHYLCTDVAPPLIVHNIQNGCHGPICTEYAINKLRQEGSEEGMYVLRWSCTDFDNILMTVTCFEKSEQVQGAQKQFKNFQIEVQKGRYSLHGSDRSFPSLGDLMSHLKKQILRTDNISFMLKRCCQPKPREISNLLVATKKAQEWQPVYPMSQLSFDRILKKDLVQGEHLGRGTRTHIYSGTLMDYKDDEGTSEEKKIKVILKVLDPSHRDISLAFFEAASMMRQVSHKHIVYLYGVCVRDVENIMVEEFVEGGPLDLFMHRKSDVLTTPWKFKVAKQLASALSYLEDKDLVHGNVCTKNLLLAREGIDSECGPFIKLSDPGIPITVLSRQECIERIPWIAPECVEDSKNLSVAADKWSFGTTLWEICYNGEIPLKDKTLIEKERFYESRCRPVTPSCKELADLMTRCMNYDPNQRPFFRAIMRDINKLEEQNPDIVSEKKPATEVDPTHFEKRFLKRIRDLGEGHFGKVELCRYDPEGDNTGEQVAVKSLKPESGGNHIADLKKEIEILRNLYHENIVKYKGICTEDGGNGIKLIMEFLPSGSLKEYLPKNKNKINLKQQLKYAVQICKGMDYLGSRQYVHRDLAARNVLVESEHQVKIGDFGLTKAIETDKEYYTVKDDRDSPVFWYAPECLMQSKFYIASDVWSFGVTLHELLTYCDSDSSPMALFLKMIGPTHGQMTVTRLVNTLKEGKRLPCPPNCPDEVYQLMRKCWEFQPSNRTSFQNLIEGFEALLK

**Q.** With O=C(Nc1cc(-c2ccc(CC(=O)N3CCCCC3)cc2)c2cc[nH]c2n1)C1CC1 [Example 557, N-(4-(4-(2-oxo-2-(piperidin-1-yl)ethyl)phenyl)-1H-pyrrolo[2,3-b]pyridin-6-yl)cyclopropanecarboxamide] as the molecule, how does the IC50 read?
**A.** Its IC50 is 20 to 200 nM.

**Q.** For O=C(Nc1cc(-c2ccc(CC(=O)N3CCNCC3)cc2)c2cc[nH]c2n1)C1CC1 [Example 558, N-(4-(4-(2-oxo-2-(piperazin-1-yl)ethyl)phenyl)-1H-pyrrolo[2,3-b]pyridin-6-yl)cyclopropanecarboxamide], which IC50 is on record?
**A.** Its IC50 is greater than 200 nM.

**Q.** Which IC50 does the source give for O=C(Nc1cc(-c2ccc(CC(=O)N3CCS(=O)(=O)CC3)c(F)c2)c2cc[nH]c2n1)C1CC1 [Example 559, N-(4-(4-(2-(1,1-dioxidothiomorpholino)-2-oxoethyl)-3-fluorophenyl)-1H-pyrrolo[2,3-b]pyridin-6-yl)cyclopropanecarboxamide] here?
**A.** The IC50 was 20 to 200 nM.

**Q.** O=C(Nc1cc(-c2ccc(CC(=O)N3CCSCC3)cc2)c2cc[nH]c2n1)C1CC1 [Example 560, N-(4-(4-(2-oxo-2-thiomorpholinoethyl)phenyl)-1H-pyrrolo[2,3-b]pyridin-6-yl)cyclopropanecarboxamide] was tested. Which IC50 did it give?
**A.** The IC50 was 20 to 200 nM.

**Q.** O=C(Nc1cc(-c2ccc(CC(=O)N3CCC(F)(F)CC3)cc2)c2cc[nH]c2n1)C1CC1 [Example 561, N-(4-(4-(2-(4,4-difluoropiperidin-1-yl)-2-oxoethyl)phenyl)-1H-pyrrolo[2,3-b]pyridin-6-yl)cyclopropanecarboxamide] was tested. Which IC50 did it give?
**A.** Its IC50 is 20 to 200 nM.

**Q.** CCS(=O)(=O)N1CCN(C(=O)Cc2ccc(-c3cc(NC(=O)C4CC4)nc4[nH]ccc34)cc2)CC1 [Example 563, N-(4-(4-(2-(4-(ethylsulfonyl)piperazin-1-yl)-2-oxoethyl)phenyl)-1H-pyrrolo[2,3-b]pyridin-6-yl)cyclopropanecarboxamide] was tested. Which IC50 did it give?
**A.** The IC50 was 20 to 200 nM.

**Q.** How did the IC50 turn out when CCCS(=O)(=O)N1CCN(C(=O)Cc2ccc(-c3cc(NC(=O)C4CC4)nc4[nH]ccc34)cc2)CC1 [Example 564, N-(4-(4-(2-oxo-2-(4-(propylsulfonyl)piperazin-1-yl)ethyl)phenyl)-1H-pyrrolo[2,3-b]pyridin-6-yl)cyclopropanecarboxamide] was run?
**A.** Its IC50 is 20 to 200 nM.

**Q.** With CCOC(=O)N1CCN(C(=O)Cc2ccc(-c3cc(NC(=O)C4CC4)nc4[nH]ccc34)cc2)CC1 [Example 565, ethyl 4-(2-(4-(6-(cyclopropanecarboxamido)-1H-pyrrolo[2,3-b]pyridin-4-yl)phenyl)acetyl)piperazine-1-carboxylate] as the molecule, how does the IC50 read?
**A.** The IC50 was 20 to 200 nM.

**Q.** For O=C(Nc1cc(-c2ccc(CC(=O)N3CCN(S(=O)(=O)NCC(F)(F)F)CC3)cc2)c2cc[nH]c2n1)C1CC1 [Example 566, (N-(4-(4-(2-oxo-2-(4-(N-(2,2,2-trifluoroethyl)sulfamoyl)piperazin-1-yl)ethyl)phenyl)-1H-pyrrolo[2,3-b]pyridin-6-yl)cyclopropanecarboxamide)], which IC50 is on record?
**A.** Its IC50 is greater than 200 nM.

**Q.** N#CC1CCN(C(=O)Cc2ccc(-c3cc(NC(=O)C4CC4)nc4[nH]ccc34)cc2)C1 (centres unmarked) [Example 567, N-(4-(4-(2-(3-cyanopyrrolidin-1-yl)-2-oxoethyl)phenyl)-1H-pyrrolo[2,3-b]pyridin-6-yl)cyclopropanecarboxamide] was tested. Which IC50 did it give?
**A.** The IC50 was 20 to 200 nM.

**Q.** N#CC1CN(C(=O)Cc2ccc(-c3cc(NC(=O)C4CC4)nc4[nH]ccc34)cc2)C1 [Example 568, N-(4-(4-(2-(3-cyanoazetidin-1-yl)-2-oxoethyl)phenyl)-1H-pyrrolo[2,3-b]pyridin-6-yl)cyclopropanecarboxamide] was tested. Which IC50 did it give?
**A.** Its IC50 is 20 to 200 nM.

**Q.** O=C(Nc1cc(-c2ccc(CC(=O)N3CCC(F)(F)C3)cc2)c2cc[nH]c2n1)C1CC1 [Example 569, N-(4-(4-(2-(3,3-difluoropyrrolidin-1-yl)-2-oxoethyl)phenyl)-1H-pyrrolo[2,3-b]pyridin-6-yl)cyclopropanecarboxamide] was tested. Which IC50 did it give?
**A.** Its IC50 is less than 20 nM.

**Q.** For O=C(Nc1cc(-c2ccc(CC(=O)N3CCC(C(F)(F)F)CC3)cc2)c2cc[nH]c2n1)C1CC1 [Example 570, N-(4-(4-(2-oxo-2-(4-(trifluoromethyl)piperidin-1-yl)ethyl)phenyl)-1H-pyrrolo[2,3-b]pyridin-6-yl)cyclopropanecarboxamide], which IC50 is on record?
**A.** The IC50 was 20 to 200 nM.

**Q.** O=C(Nc1cc(-c2ccc(C(F)(F)C(=O)N3CCS(=O)(=O)CC3)cc2)c2cc[nH]c2n1)C1CC1 [Example 571, N-(4-(4-(2-(1,1-dioxidothiomorpholino)-1,1-difluoro-2-oxoethyl)phenyl)-1H-pyrrolo[2,3-b]pyridin-6-yl)cyclopropanecarboxamide] was tested. Which IC50 did it give?
**A.** Its IC50 is 20 to 200 nM.

**Q.** How did the IC50 turn out when O=C(Nc1cc(-c2ccc(C(F)(F)C(=O)N3CCOCC3)cc2)c2cc[nH]c2n1)C1CC1 [Example 572, N-(4-(4-(1,1-difluoro-2-morpholino-2-oxoethyl)phenyl)-1H-pyrrolo[2,3-b]pyridin-6-yl)cyclopropanecarboxamide] was run?
**A.** The IC50 was 20 to 200 nM.

**Q.** For CN(CC#N)C(=O)Cc1ccc(-c2cc(NC(=O)C3CC3)nc3[nH]ccc23)cc1 [Example 573, N-(4-(4-(2-((cyanomethyl)(methyl)amino)-2-oxoethyl)phenyl)-1H-pyrrolo[2,3-b]pyridin-6-yl)cyclopropanecarboxamide], which IC50 is on record?
**A.** Its IC50 is 20 to 200 nM.

**Q.** O=C(Nc1cc(-c2ccc(CC(=O)N3CC[S+]([O-])CC3)cc2)c2cc[nH]c2n1)C1CC1 [Example 574, N-(4-(4-(2-(1-oxidothiomorpholino)-2-oxoethyl)phenyl)-1H-pyrrolo[2,3-b]pyridin-6-yl)cyclopropanecarboxamide] was tested. Which IC50 did it give?
**A.** Its IC50 is 20 to 200 nM.

**Q.** Which IC50 does the source give for N#CC1CCN(C(=O)C(F)(F)c2ccc(-c3cc(NC(=O)C4CC4)nc4[nH]ccc34)cc2)CC1 [Example 575, N-(4-(4-(2-(4-cyanopiperidin-1-yl)-1,1-difluoro-2-oxoethyl)phenyl)-1H-pyrrolo[2,3-b]pyridin-6-yl)cyclopropanecarboxamide] here?
**A.** The IC50 was 20 to 200 nM.

**Q.** N#CC1COCCN1C(=O)Cc1ccc(-c2cc(NC(=O)C3CC3)nc3[nH]ccc23)cc1 (centres unmarked) [Example 576, N-(4-(4-(2-(3-cyanomorpholino)-2-oxoethyl)phenyl)-1H-pyrrolo[2,3-b]pyridin-6-yl)cyclopropanecarboxamide] was tested. Which IC50 did it give?
**A.** The IC50 was 20 to 200 nM.

**Q.** For O=C(Nc1cc(-c2ccc(C3(C(=O)N4CCS(=O)(=O)CC4)CC3)cc2)c2cc[nH]c2n1)C1CC1 [Example 577, N-(4-(4-(1-(1,1-dioxidothiomorpholine-4-carbonyl)cyclopropyl)phenyl)-1H-pyrrolo[2,3-b]pyridin-6-yl)cyclopropanecarboxamide], which IC50 is on record?
**A.** Its IC50 is 20 to 200 nM.

**Q.** With O=C(Nc1cc(C2=CCN(CC(=O)N3CCS(=O)(=O)CC3)CC2)c2cc[nH]c2n1)C1CC1 [Example 578, N-(4-(1-(2-(1,1-dioxidothiomorpholino)-2-oxoethyl)-1,2,3,6-tetrahydropyridin-4-yl)-1H-pyrrolo[2,3-b]pyridin-6-yl)cyclopropanecarboxamide] as the molecule, how does the IC50 read?
**A.** The IC50 was 20 to 200 nM.

**Q.** O=C(Nc1cc(-c2ccc(CNC(=O)N3CCOCC3)cc2)c2cc[nH]c2n1)C1CC1 [Example 579, N-(4-(6-(cyclopropanecarboxamido)-1H-pyrrolo[2,3-b]pyridin-4-yl)benzyl)morpholine-4-carboxamide] was tested. Which IC50 did it give?
**A.** The IC50 was greater than 200 nM.

**Q.** With O=C(Nc1cc(-c2ccc(CNC(=O)N3CCS(=O)(=O)CC3)cc2)c2cc[nH]c2n1)C1CC1 [Example 580, N-(4-(6-(cyclopropanecarboxamido)-1H-pyrrolo[2,3-b]pyridin-4-yl)benzyl)thiomorpholine-4-carboxamide 1,1-dioxide] as the molecule, how does the IC50 read?
**A.** Its IC50 is 20 to 200 nM.

**Q.** O=C(NCc1ccc(-c2cc(NC(=O)C3CC3)nc3[nH]ccc23)cc1)NCC(F)(F)F [Example 581, N-(4-(4-((3-(2,2,2-trifluoroethyl)ureido)methyl)phenyl)-1H-pyrrolo[2,3-b]pyridin-6-yl)cyclopropanecarboxamide] was tested. Which IC50 did it give?
**A.** Its IC50 is 20 to 200 nM.

**Q.** With O=C(Nc1cc(-c2ccc(CNS(=O)(=O)c3ccc(F)c(F)c3)cc2)c2cc[nH]c2n1)C1CC1 [Example 582, N-(4-(4-(((3,4-difluorophenyl)sulfonamido)methyl)phenyl)-1H-pyrrolo[2,3-b]pyridin-6-yl)cyclopropanecarboxamide] as the molecule, how does the IC50 read?
**A.** The IC50 was less than 20 nM.

**Q.** Which IC50 does the source give for CCCS(=O)(=O)NCc1ccc(-c2cc(NC(=O)C3CC3)nc3[nH]ccc23)cc1 [Example 583, N-(4-(4-(propylsulfonamidomethyl)phenyl)-1H-pyrrolo[2,3-b]pyridin-6-yl)cyclopropanecarboxamide] here?
**A.** Its IC50 is 20 to 200 nM.

**Q.** Which IC50 does the source give for O=C(Nc1cc(-c2ccc(CN3CCS(=O)(=O)CC3)cc2)c2cc[nH]c2n1)C1CC1 [Example 584, N-(4-(4-((1,1-dioxidothiomorpholino)methyl)phenyl)-1H-pyrrolo[2,3-b]pyridin-6-yl)cyclopropanecarboxamide] here?
**A.** The IC50 was less than 20 nM.

**Q.** How did the IC50 turn out when O=C1CCN(Cc2ccc(-c3cc(NC(=O)C4CC4)nc4[nH]ccc34)cc2)CC1 [Example 585, N-(4-(4-((4-oxopiperidin-1-yl)methyl)phenyl)-1H-pyrrolo[2,3-b]pyridin-6-yl)cyclopropanecarboxamide] was run?
**A.** The IC50 was less than 20 nM.

**Q.** With N#CC1CN(Cc2ccc(-c3cc(NC(=O)C4CC4)nc4[nH]ccc34)cc2)C1 [Example 586, N-(4-(4-((3-cyanoazetidin-1-yl)methyl)phenyl)-1H-pyrrolo[2,3-b]pyridin-6-yl)cyclopropanecarboxamide] as the molecule, how does the IC50 read?
**A.** The IC50 was 20 to 200 nM.

**Q.** For CS(=O)(=O)N1CCN(Cc2ccc(-c3cc(NC(=O)C4CC4)nc4[nH]ccc34)cc2)CC1 [Example 587, N-(4-(4-((4-(methylsulfonyl)piperazin-1-yl)methyl)phenyl)-1H-pyrrolo[2,3-b]pyridin-6-yl)cyclopropanecarboxamide], which IC50 is on record?
**A.** Its IC50 is less than 20 nM.

**Q.** With CC1CC1C(=O)Nc1cc(-c2ccc(CN3CCS(=O)(=O)CC3)cc2)c2cc[nH]c2n1 (centres unmarked) [Example 588, N-(4-(4-((1,1-dioxidothiomorpholino)methyl)phenyl)-1H-pyrrolo[2,3-b]pyridin-6-yl)-2-methylcyclopropane-1-carboxamide] as the molecule, how does the IC50 read?
**A.** Its IC50 is less than 20 nM.

**Q.** For CC(c1ccc(-c2cc(NC(=O)C3CC3)nc3[nH]ccc23)cc1)N1CCS(=O)(=O)CC1 (centres unmarked) [Example 589, N-(4-(4-(1-(1,1-dioxidothiomorpholino)ethyl)phenyl)-1H-pyrrolo[2,3-b]pyridin-6-yl)cyclopropanecarboxamide], which IC50 is on record?
**A.** The IC50 was less than 20 nM.
